# From PubChem BioAssay AID2060604 (Molecular Pharmacology Branch, DTP, NCI, 2025)
# Tested on: 379773-124-R-J2-PDC complex spheroids, viability % test/control
# Experiment: Anticancer human tumor 379773-124-R-J2-PDC patient-derived endometrial carcinoma cell line growth inhibition [CLK]
# Conditions: for IC50: curve of first compound; for viability, T/C: stronger effect = lower value
# Outline: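 Multi-cell-type spheroids combined patient-derived tumor cells with HUVEC endothelial cells and human mesenchymal stem cells. Paired agents were dosed in half-log steps down from about clinical Cmax, or from 10 microM where Cmax was unknown.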
# [1] = second compound 0.0316 µM, first compound 0.0316 µM
# [2] = second compound 0.0316 µM, first compound 0.1 µM
# [3] = second compound 0.0316 µM, first compound 0.316 µM
# [4] = second compound 0.0316 µM, first compound 1 µM
# [5] = second compound 0.0316 µM, first compound 3.16 µM
# [6] = second compound 0.0316 µM, first compound 10 µM
# [7] = second compound 0.1 µM, first compound 0.0316 µM
# [8] = second compound 0.1 µM, first compound 0.1 µM
# [9] = second compound 0.1 µM, first compound 0.316 µM
# [10] = second compound 0.1 µM, first compound 1 µM
# [11] = second compound 0.1 µM, first compound 3.16 µM
# [12] = second compound 0.1 µM, first compound 10 µM
# [13] = second compound 0.316 µM, first compound 0.0316 µM
# [14] = second compound 0.316 µM, first compound 0.1 µM
# [15] = second compound 0.316 µM, first compound 0.316 µM
# [16] = second compound 0.316 µM, first compound 1 µM
# [17] = second compound 0.316 µM, first compound 3.16 µM
# [18] = second compound 0.316 µM, first compound 10 µM
# [19] = second compound 1 µM, first compound 0.0316 µM
# [20] = second compound 1 µM, first compound 0.1 µM
# [21] = second compound 1 µM, first compound 0.316 µM
# [22] = second compound 1 µM, first compound 1 µM
# [23] = second compound 1 µM, first compound 3.16 µM
# [24] = second compound 1 µM, first compound 10 µM
# [25] = second compound 3.16 µM, first compound 0.0316 µM
# [26] = second compound 3.16 µM, first compound 0.1 µM
# [27] = second compound 3.16 µM, first compound 0.316 µM
# [28] = second compound 3.16 µM, first compound 1 µM
# [29] = second compound 3.16 µM, first compound 3.16 µM
# [30] = second compound 3.16 µM, first compound 10 µM
# [31] = second compound 10 µM, first compound 0.0316 µM
# [32] = second compound 10 µM, first compound 0.1 µM
# [33] = second compound 10 µM, first compound 0.316 µM
# [34] = second compound 10 µM, first compound 1 µM
# [35] = second compound 10 µM, first compound 3.16 µM
# [36] = second compound 10 µM, first compound 10 µM
# 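Further: compound exposure lasted seven days before the viability readout.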
# 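Wherever viability, T/C is given: 100% = DMSO vehicle control wells.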
smiles,measurement,setting,value
COc1ccc([C@@H](O)c2cc(-c3ncnc4cc(N5CCOCC5)ccc34)c(F)cc2Cl)nn1 + CN1CCN(c2cc(C(=O)Nc3cc4cc(-c5cnn(C)c5)ccc4cn3)ccn2)CC1,IC50,second compound 0.0316 µM,5.32 µM
same,IC50,second compound 0.1 µM,2.82 µM
same,IC50,second compound 0.316 µM,< 0.0316 µM
same,IC50,second compound 1 µM,< 0.0316 µM
same,IC50,second compound 3.16 µM,< 0.0316 µM
same,IC50,second compound 10 µM,< 0.0316 µM
same,"viability, T/C",[1],87.4%
same,"viability, T/C",[2],80.7%
same,"viability, T/C",[3],96.9%
same,"viability, T/C",[4],79.2%
same,"viability, T/C",[5],71.8%
same,"viability, T/C",[6],24.4%
same,"viability, T/C",[7],70.2%
same,"viability, T/C",[8],76.5%
same,"viability, T/C",[9],86.2%
same,"viability, T/C",[10],47%
same,"viability, T/C",[11],55%
same,"viability, T/C",[12],19.1%
same,"viability, T/C",[13],14.9%
same,"viability, T/C",[14],16.6%
same,"viability, T/C",[15],16.6%
same,"viability, T/C",[16],17.7%
same,"viability, T/C",[17],12.9%
same,"viability, T/C",[18],5.38%
same,"viability, T/C",[19],0.1%
same,"viability, T/C",[20],0.09%
same,"viability, T/C",[21],0.11%
same,"viability, T/C",[22],0.05%
same,"viability, T/C",[23],1.5%
same,"viability, T/C",[24],0.08%
same,"viability, T/C",[25],0.65%
same,"viability, T/C",[26],1.73%
same,"viability, T/C",[27],0.73%
same,"viability, T/C",[28],0.06%
same,"viability, T/C",[29],0.09%
same,"viability, T/C",[30],0.08%
same,"viability, T/C",[31],0.49%
same,"viability, T/C",[32],0.1%
same,"viability, T/C",[33],0.79%
same,"viability, T/C",[34],0.11%
same,"viability, T/C",[35],0.24%
same,"viability, T/C",[36],0.14%
COc1cccc2c1C(=O)c1c(O)c3c(c(O)c1C2=O)CC(O)(C(=O)CO)CC3OC1CC(N)C(O)C(C)O1 (centres undefined) + CN1CCN(c2cc(C(=O)Nc3cc4cc(-c5cnn(C)c5)ccc4cn3)ccn2)CC1,IC50,second compound 0.0316 µM,< 0.0316 µM
same,IC50,second compound 0.1 µM,< 0.0316 µM
same,IC50,second compound 0.316 µM,< 0.0316 µM
same,IC50,second compound 1 µM,< 0.0316 µM
same,IC50,second compound 3.16 µM,< 0.0316 µM
same,IC50,second compound 10 µM,< 0.0316 µM
same,"viability, T/C",[1],41%
same,"viability, T/C",[2],11.9%
same,"viability, T/C",[3],5.69%
same,"viability, T/C",[4],3.76%
same,"viability, T/C",[5],0.3%
same,"viability, T/C",[6],0.91%
same,"viability, T/C",[7],30.5%
same,"viability, T/C",[8],10.3%
same,"viability, T/C",[9],9.14%
same,"viability, T/C",[10],3.16%
same,"viability, T/C",[11],0.33%
same,"viability, T/C",[12],0.09%
same,"viability, T/C",[13],8.53%
same,"viability, T/C",[14],8.1%
same,"viability, T/C",[15],3.09%
same,"viability, T/C",[16],2.71%
same,"viability, T/C",[17],0.12%
same,"viability, T/C",[18],0.21%
same,"viability, T/C",[19],0.13%
same,"viability, T/C",[20],0.1%
same,"viability, T/C",[21],0.78%
same,"viability, T/C",[22],1.01%
same,"viability, T/C",[23],0.06%
same,"viability, T/C",[24],0.16%
same,"viability, T/C",[25],2.21%
same,"viability, T/C",[26],0.27%
same,"viability, T/C",[27],1.48%
same,"viability, T/C",[28],0.04%
same,"viability, T/C",[29],0.07%
same,"viability, T/C",[30],0.17%
same,"viability, T/C",[31],1.64%
same,"viability, T/C",[32],0.35%
same,"viability, T/C",[33],0.12%
same,"viability, T/C",[34],2.01%
same,"viability, T/C",[35],0.31%
same,"viability, T/C",[36],0.12%
